In patent US20160083357A1, “NOVEL TETRAZOLONE DERIVATIVES” (Hoffmann-La Roche Inc., priority 2013, published 2016):
Read-outs that look alike come from different tables or passages of the source.

Experiments:
[1] = target: T1, human CB2 receptors (Homo sapiens, UniProt P34972); assay: cAMP assay, human CB2; format: cell-based
T1 construct: expressed in transfected cells; host or cells: CHO cells
Description: (§1) CHO cells expressing human CB1 or CB2 receptors are seeded 17-24 hours prior to the experiment 50.000 cells per well in a black 96 well plate with flat clear bottom (Corning Costar #3904) in DMEM (Invitrogen No. 31331), lx HT supplement, with 10% fetal calf serum and incubated at 5% CO2 and 37° C. in a humidified incubator. The growth medium was exchanged with Krebs Ringer Bicarbonate buffer with 1 mM IBMX and incubated at 30° C. for 30 min. Compounds were added to a final assay volume of 100 μl and incubated for 30 min at 30° C. Using the cAMP-Nano-TRF detection kit the assay (Roche Diagnostics) was stopped by the addition of 50 μl lysis reagent (Tris, NaCl, 1.5% Triton X100, 2.5% NP40, 10% NaN3) and 50 μl detection solutions (20 μM mAb Alexa700-cAMP 1:1, and 48 μM Ruthenium-2-AHA-cAMP) and shaken for 2 h at room temperature. The time-resolved energy transfer is measured by a TRF reader (Evotec Technologies GmbH), equipped with a ND:YAG laser as excitation source. The plate is measured twice with the excitation at 355 nm and at the emission with a delay of 100 ns and a gate of 100 ns, total exposure time 10 s at 730 (bandwidth 30 nm) or 645 nm (bandwidth 75 nm), respectively. The FRET signal is calculated as follows: FRET=T730-Alexa730-P(T645-B645) with P=Ru730-B730/Ru645-B645, where T730 is the test well measured at 730 nM, T645 is the test well measured at 645 nm, B730 and B645 are the buffer controls at 730 nm and 645 nm, respectively. cAMP content is determined from the function of a standard curve spanning from 10 μM to 0.13 nM cAMP.
(§2) EC50 values were determined using Activity Base analysis (ID Business Solution, Limited). The EC50 values for a wide range of cannabinoid agonists generated from this assay were in agreement with the values published in the scientific literature.

[2] = target: T2, human CB1 receptors (Homo sapiens, UniProt P21554); assay: cAMP assay, human CB1; format: cell-based
T2 construct: expressed in transfected cells; host or cells: CHO cells
T2 sequence (P21554 whole entry): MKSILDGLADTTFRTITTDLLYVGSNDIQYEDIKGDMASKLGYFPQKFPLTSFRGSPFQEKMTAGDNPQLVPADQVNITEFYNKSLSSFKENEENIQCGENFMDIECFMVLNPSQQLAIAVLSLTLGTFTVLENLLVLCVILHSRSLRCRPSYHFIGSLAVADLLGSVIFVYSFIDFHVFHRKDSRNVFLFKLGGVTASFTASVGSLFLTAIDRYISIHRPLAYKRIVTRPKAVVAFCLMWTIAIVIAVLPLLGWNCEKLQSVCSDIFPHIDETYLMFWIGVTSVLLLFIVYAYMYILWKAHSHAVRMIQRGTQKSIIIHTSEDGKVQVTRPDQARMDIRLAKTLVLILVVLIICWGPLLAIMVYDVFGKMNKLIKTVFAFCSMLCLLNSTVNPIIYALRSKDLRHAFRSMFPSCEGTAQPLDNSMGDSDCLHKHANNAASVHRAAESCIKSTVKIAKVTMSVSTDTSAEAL
Description: as §1, §2

[3] = functional cAMP assay, CHO cells expressing human CB2, read-out: Ec50: CB2 - hu cAMP
[4] = functional cAMP assay, CHO cells expressing human CB1, read-out: Ec50: CB1 - hu cAMP

T1 sequence (P34972 whole entry): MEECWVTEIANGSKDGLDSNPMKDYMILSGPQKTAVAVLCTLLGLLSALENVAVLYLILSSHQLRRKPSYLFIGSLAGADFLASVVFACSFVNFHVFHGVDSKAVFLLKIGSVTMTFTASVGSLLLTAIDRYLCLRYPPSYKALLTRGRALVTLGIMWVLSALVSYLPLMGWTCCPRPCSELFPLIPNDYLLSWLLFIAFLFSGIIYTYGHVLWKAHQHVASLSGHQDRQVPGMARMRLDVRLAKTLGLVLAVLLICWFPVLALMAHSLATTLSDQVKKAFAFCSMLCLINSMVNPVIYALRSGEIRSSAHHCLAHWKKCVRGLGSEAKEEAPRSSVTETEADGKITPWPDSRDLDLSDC

## COC(=O)C1(NC(=O)OC(C)(C)C)CCN(C(=O)n2nnn(-c3cccc(F)c3)c2=O)CC1 [Example 62, 4-tert-Butoxycarbonylamino-1-[4-(3-fluoro-phenyl)-5-oxo-4,5-dihydro-tetrazole-1-carbonyl]-piperidine-4-carboxylic acid methyl ester]
[1]; [3]
  EC50: 61.4 nM
[2]; [4]
  EC50: > 10000 nM

## CC1(C)CCCN(C(=O)n2nnn(-c3cccc(F)c3)c2=O)C1 [Example 63, 1-(3,3-Dimethyl-piperidine-1-carbonyl)-4-(3-fluoro-phenyl)-1,4-dihydro-tetrazol-5-one]
[1]; [3]
  EC50: 1.8 nM
[2]; [4]
  EC50: > 10000 nM

## O=C(N1CCC2(CCOC2)CC1)n1nnn(-c2cccc(F)c2)c1=O [Example 64, 1-(3-Fluoro-phenyl)-4-(2-oxa-8-aza-spiro[4.5]decane-8-carbonyl)-1,4-dihydro-tetrazol-5-one]
[1]; [3]
  EC50: 2.5 nM
[2]; [4]
  EC50: > 10000 nM

## CC(=O)N[C@@H]1CCN(C(=O)n2nnn(-c3cccc(Cl)c3)c2=O)C1 [Example 65, N—{(R)-1-[4-(3-Chloro-phenyl)-5-oxo-4,5-dihydro-tetrazole-1-carbonyl]-pyrrolidin-3-yl}-acetamide]
[1]; [3]
  EC50: 15 nM
[2]; [4]
  EC50: > 10000 nM

## CC(=O)N[C@@H]1CCN(C(=O)n2nnn(-c3cccc(OC(F)(F)F)c3)c2=O)C1 [Example 66, N—{(R)-1-[5-Oxo-4-(3-trifluoromethoxy-phenyl)-4,5-dihydro-tetrazole-1-carbonyl]-pyrrolidin-3-yl}-acetamide]
[1]; [3]
  EC50: 20.4 nM
[2]; [4]
  EC50: > 10000 nM

## CC(=O)N[C@@H]1CCN(C(=O)n2nnn(-c3ccc(Cl)cc3)c2=O)C1 [Example 67, N—{(R)-1-[4-(4-Chloro-phenyl)-5-oxo-4,5-dihydro-tetrazole-1-carbonyl]-pyrrolidin-3-yl}-acetamide]
[1]; [3]
  EC50: 14.6 nM
[2]; [4]
  EC50: > 10000 nM

## CC(=O)N[C@H]1CCN(C(=O)n2nnn(-c3cccc(Cl)c3)c2=O)C1 [Example 68, N—{(S)-1-[4-(3-Chloro-phenyl)-5-oxo-4,5-dihydro-tetrazole-1-carbonyl]-pyrrolidin-3-yl}-acetamide]
[1]; [3]
  EC50: 39.5 nM
[2]; [4]
  EC50: > 10000 nM

## CC(=O)N[C@H]1CCN(C(=O)n2nnn(-c3cccc(OC(F)(F)F)c3)c2=O)C1 [Example 69, N—{(S)-1-[5-Oxo-4-(3-trifluoromethoxy-phenyl)-4,5-dihydro-tetrazole-1-carbonyl]-pyrrolidin-3-yl}-acetamide]
[1]; [3]
  EC50: 18.2 nM
[2]; [4]
  EC50: > 10000 nM

## CC(=O)N[C@H]1CCN(C(=O)n2nnn(-c3ccc(Cl)cc3)c2=O)C1 [Example 70, N—{(S)-1-[4-(4-Chloro-phenyl)-5-oxo-4,5-dihydro-tetrazole-1-carbonyl]-pyrrolidin-3-yl}-acetamide]
[1]; [3]
  EC50: 32.1 nM
[2]; [4]
  EC50: > 10000 nM

## CCN(C(C)=O)C1CCN(C(=O)n2nnn(-c3cccc(Cl)c3)c2=O)C1 (centres unmarked) [Example 71, N-{1-[4-(3-Chloro-phenyl)-5-oxo-4,5-dihydro-tetrazole-1-carbonyl]-pyrrolidin-3-yl}-N-ethyl-acetamide]
[1]; [3]
  EC50: 16.7 nM
[2]; [4]
  EC50: > 10000 nM

## CCN(C(C)=O)C1CCN(C(=O)n2nnn(-c3cccc(OC(F)(F)F)c3)c2=O)C1 (centres unmarked) [Example 72, N-Ethyl-N-{1-[5-oxo-4-(3-trifluoromethoxy-phenyl)-4,5-dihydro-tetrazole-1-carbonyl]-pyrrolidin-3-yl}-acetamide]
[1]; [3]
  EC50: 27 nM
[2]; [4]
  EC50: > 10000 nM

## CCN(C(C)=O)C1CCN(C(=O)n2nnn(-c3ccc(Cl)cc3)c2=O)C1 (centres unmarked) [Example 73, N-{1-[4-(4-Chloro-phenyl)-5-oxo-4,5-dihydro-tetrazole-1-carbonyl]-pyrrolidin-3-yl}-N-ethyl-acetamide]
[1]; [3]
  EC50: 10.8 nM
[2]; [4]
  EC50: > 10000 nM

## Cc1cc(C2CCCN2C(=O)n2nnn(-c3cccc(Cl)c3)c2=O)on1 (centres unmarked) [Example 74, 1-(3-Chloro-phenyl)-4-[2-(3-methyl-isoxazol-5-yl)-pyrrolidine-1-carbonyl]-1,4-dihydro-tetrazol-5-one]
[1]; [3]
  EC50: 9.7 nM
[2]; [4]
  EC50: > 10000 nM

## Cc1cc(C2CCCN2C(=O)n2nnn(-c3cccc(OC(F)(F)F)c3)c2=O)on1 (centres unmarked) [Example 75, 1-[2-(3-Methyl-isoxazol-5-yl)-pyrrolidine-1-carbonyl]-4-(3-trifluoromethoxy-phenyl)-1,4-dihydro-tetrazol-5-one]
[1]; [3]
  EC50: 28.5 nM
[2]; [4]
  EC50: > 10000 nM

## Cc1cc(C2CCCN2C(=O)n2nnn(-c3ccc(Cl)cc3)c2=O)on1 (centres unmarked) [Example 76, 1-(4-Chloro-phenyl)-4-[2-(3-methyl-isoxazol-5-yl)-pyrrolidine-1-carbonyl]-1,4-dihydro-tetrazol-5-one]
[1]; [3]
  EC50: 7.4 nM
[2]; [4]
  EC50: > 10000 nM

## CC1(C)CCN(C(=O)n2nnn(-c3cccc(Cl)c3)c2=O)CC1 [Example 77, 1-(3-Chloro-phenyl)-4-(4,4-dimethyl-piperidine-1-carbonyl)-1,4-dihydro-tetrazol-5-one]
[1]; [3]
  EC50: 0.6 nM
[2]; [4]
  EC50: > 10000 nM

## CC1(C)CCN(C(=O)n2nnn(-c3cccc(OC(F)(F)F)c3)c2=O)CC1 [Example 78, 1-(4,4-Dimethyl-piperidine-1-carbonyl)-4-(3-trifluoromethoxy-phenyl)-1,4-dihydro-tetrazol-5-one]
[1]; [3]
  EC50: 1.5 nM
[2]; [4]
  EC50: > 10000 nM

## CC1(C)CCN(C(=O)n2nnn(-c3ccc(Cl)cc3)c2=O)CC1 [Example 79, 1-(4-Chloro-phenyl)-4-(4,4-dimethyl-piperidine-1-carbonyl)-1,4-dihydro-tetrazol-5-one]
[1]; [3]
  EC50: 0.9 nM
[2]; [4]
  EC50: > 10000 nM

## CCN(CCOC)C(=O)n1nnn(-c2cccc(Cl)c2)c1=O [Example 80, 4-(3-Chloro-phenyl)-5-oxo-4,5-dihydro-tetrazole-1-carboxylic acid ethyl-(2-methoxy-ethyl)-amide]
[1]
  EC50: 2.4 nM
[2]
  EC50: > 10000 nM

## CCN(CCOC)C(=O)n1nnn(-c2cccc(OC(F)(F)F)c2)c1=O [Example 81, 5-Oxo-4-(3-trifluoromethoxy-phenyl)-4,5-dihydro-tetrazole-1-carboxylic acid ethyl-(2-methoxy-ethyl)-amide]
[1]; [3]
  EC50: 4 nM
[2]; [4]
  EC50: > 10000 nM

## CCN(CCOC)C(=O)n1nnn(-c2ccc(Cl)cc2)c1=O [Example 82, 4-(4-Chloro-phenyl)-5-oxo-4,5-dihydro-tetrazole-1-carboxylic acid ethyl-(2-methoxy-ethyl)-amide]
[1]
  EC50: 3.3 nM
[2]
  EC50: > 10000 nM

## COCCN(C(=O)n1nnn(-c2cccc(Cl)c2)c1=O)C(C)C [Example 83, 4-(3-Chloro-phenyl)-5-oxo-4,5-dihydro-tetrazole-1-carboxylic acid isopropyl-(2-methoxy-ethyl)-amide]
[1]
  EC50: 5.3 nM
[2]
  EC50: > 10000 nM

## COCCN(C(=O)n1nnn(-c2cccc(OC(F)(F)F)c2)c1=O)C(C)C [Example 84, 5-Oxo-4-(3-trifluoromethoxy-phenyl)-4,5-dihydro-tetrazole-1-carboxylic acid isopropyl-(2-methoxy-ethyl)-amide]
[1]; [3]
  EC50: 9.5 nM
[2]; [4]
  EC50: > 10000 nM

## COCCN(C(=O)n1nnn(-c2ccc(Cl)cc2)c1=O)C(C)C [Example 85, 4-(4-Chloro-phenyl)-5-oxo-4,5-dihydro-tetrazole-1-carboxylic acid isopropyl-(2-methoxy-ethyl)-amide]
[1]
  EC50: 7.9 nM
[2]
  EC50: > 10000 nM

## COCCCN(C)C(=O)n1nnn(-c2cccc(Cl)c2)c1=O [Example 86, 4-(3-Chloro-phenyl)-5-oxo-4,5-dihydro-tetrazole-1-carboxylic acid (3-methoxy-propyl)-methyl-amide]
[1]; [3]
  EC50: 1 nM
[2]; [4]
  EC50: > 10000 nM
